# In ChEMBL document CHEMBL1147379, “Antineoplastic agents, 256. Cell growth inhibitory isocarbostyrils from Hymenocallis” (1993):
# The source made the active and inactive calls. The rule behind the calls is not given here.
# How the values were obtained:
# [1] = test system: P388; test: Growth inhibition of mouse P388 cells; format: functional; details: read-out: ED50 (the source's name)
# [2] = test system: M5076; test: Growth inhibition of mouse M5076 cells; format: functional, cell-based
structure (smiles),measurement,setting,value
O=C1N[C@H]2[C@H](O)[C@H](O)[C@@H](O)[C@H](O)[C@@H]2c2cc3c(c(O)c21)OCO3 [PANCRATISTATIN],EC50,[1],0.01 µg/mL
same,Activity,[2],Active
